Laboratory results published in US20100015141A1, “4-PHENOXY-6-ARYL-1H-PYRAZOLO[3,4-D]PYRIMIDINE AND N-ARYL-6-ARYL-1H-PYRAZOLO[3,4-D]PYRIMIDIN-4-AMINE COMPOUNDS, THEIR USE AS MTOR KINASE AND PI3 KINASE INHIBITORS, AND THEIR SYNTHESES” (Wyeth, priority 2008, published 2010).
Read-outs that look alike come from different tables or passages of the source.

Key:
PI3K-γ = PI3K-γ (Homo sapiens, UniProt P48736); assay: PI3K-gamma fluorescence polarization assay; assay type: biochemical; details: 20 μM PIP2, 25 μM ATP
Procedure, shortened: (§1)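 Buffer: 20 mM HEPES pH7.5, 2 mM MgCl2, 0.05% CHAPS, 0.01% βME. Enzyme with compound was reacted with final 20 μM diC8 PIP2 and 25 μM ATP for 30-60 minutes at room temperature. The stop/detection mix (10 nM TAMRA probe, 2.5 uM GST-murine GRP as added) was read by fluorescence polarization after 90-110 minutes.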

PI3K-α = PI3K-α (Homo sapiens, UniProt P42336); assay: PI3K-alpha fluorescence polarization assay; assay type: biochemical; details: 20 μM PIP2, 25 μM ATP
Procedure, shortened: as §1

mTOR [1] = biological target: T1, mTOR (Homo sapiens, UniProt P42345); assay: mTOR enzyme assay (DELFIA, His6-S6K phosphorylation); assay type: biochemical; design: FLAG; details: 100 μM ATP, 1.25 μM His6-S6K
PI3K-δ = PI3K-δ (Homo sapiens, UniProt O00329); assay: PI3K fluorescence polarization assay (PI3K-δ); assay type: biochemical
Experimental: (§2) The reaction buffer was 20 mM HEPES pH7.5, 2 mM MgCl2, 0.05% CHAPS, and 0.01% βME (added fresh). The substrate solution was 40 μM PIP2 (diC8, Echelon, Salt Lake City Utah cat #P-4508, 1 mM in water) and 50 μM ATP in the reaction buffer. Nunc 384-well black polypropylene fluorescent plates were used for PI3K assays. The assay is run by putting 9.5 μl of freshly diluted enzyme in the reaction buffer per well, adding 0.5 μl of diluted drug or DMSO, and mixing. Then 10 μl of the substrate solution is added to each well to start the reaction. A final concentration of 20 μM PIP2 and 25 μM ATP in the reaction was used. Reactions were allowed to proceed for 30-60 minutes at room temperature. After 30-60 minutes, 20 μl of a solution of 10 nM TAMRA detector (Red detector probe-Echelon) and 2.5 uM of GST-murineGRP (1.5 mg/ml in 17% glycerol) was added per well to stop the reaction. The resulting solution was mixed well and allowed to stand for 90-110 minutes before reading plate. Assay Plates were read on Perkin-Elmer Envision plate readers with appropriate filters for Tamra [BODIPY-TMRI(1,3,4,5)P4]. Data obtained were used to calculate enzymatic activity and enzyme inhibition by inhibitor compounds. It is important to keep Red probe solutions dark. This procedure is adapted from Echelon Biosciences Inc procedure for their PI3-Kinase fluorescence polarization activity Assay kit Product number K-1100.

PI3K-β = PI3K-β (Homo sapiens, UniProt P42338); assay: PI3K fluorescence polarization assay (PI3K-β); assay type: biochemical
Experimental: as §2

human tumor xenografts = details: cited from earlier work
[2] = system: acute lymphoblastic leukemia; details: in vivo; cited from earlier work
mTOR [3] = biological target: T1, mTOR; details: read-out: mTOR IC50; mTOR complexes (PI103) / mTOR enzymes (ZSTK474); cited from earlier work

Sequence of PI3K-α (P42336 whole entry, species assumed): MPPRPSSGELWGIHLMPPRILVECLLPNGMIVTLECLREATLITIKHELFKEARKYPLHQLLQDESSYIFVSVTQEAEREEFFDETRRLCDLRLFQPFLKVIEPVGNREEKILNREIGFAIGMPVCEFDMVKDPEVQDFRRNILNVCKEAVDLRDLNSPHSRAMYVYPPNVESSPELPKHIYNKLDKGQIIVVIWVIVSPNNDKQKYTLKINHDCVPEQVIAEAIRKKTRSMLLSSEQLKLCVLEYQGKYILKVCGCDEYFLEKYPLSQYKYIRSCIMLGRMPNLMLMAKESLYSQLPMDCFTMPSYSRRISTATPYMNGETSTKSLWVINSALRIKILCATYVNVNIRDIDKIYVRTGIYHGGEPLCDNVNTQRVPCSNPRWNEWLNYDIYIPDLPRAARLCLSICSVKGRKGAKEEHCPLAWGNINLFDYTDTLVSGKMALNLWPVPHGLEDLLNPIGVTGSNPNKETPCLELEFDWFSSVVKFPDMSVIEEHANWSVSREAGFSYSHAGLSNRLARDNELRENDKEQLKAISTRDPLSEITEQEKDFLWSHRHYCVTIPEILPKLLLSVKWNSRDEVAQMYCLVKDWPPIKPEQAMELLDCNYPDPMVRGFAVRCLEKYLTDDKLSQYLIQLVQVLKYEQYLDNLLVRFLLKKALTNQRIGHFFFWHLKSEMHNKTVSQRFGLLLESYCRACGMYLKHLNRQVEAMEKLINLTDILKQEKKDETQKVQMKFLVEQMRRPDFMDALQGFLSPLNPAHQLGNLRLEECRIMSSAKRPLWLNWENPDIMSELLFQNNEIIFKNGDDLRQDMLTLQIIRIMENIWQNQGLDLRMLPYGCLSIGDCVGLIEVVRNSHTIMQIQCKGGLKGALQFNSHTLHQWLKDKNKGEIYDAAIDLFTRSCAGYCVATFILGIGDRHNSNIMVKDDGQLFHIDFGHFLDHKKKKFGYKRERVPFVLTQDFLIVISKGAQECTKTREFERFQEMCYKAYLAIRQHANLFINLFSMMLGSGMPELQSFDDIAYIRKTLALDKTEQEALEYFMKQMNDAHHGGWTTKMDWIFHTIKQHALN
Sequence of PI3K-α (P27986 whole entry partner, species assumed): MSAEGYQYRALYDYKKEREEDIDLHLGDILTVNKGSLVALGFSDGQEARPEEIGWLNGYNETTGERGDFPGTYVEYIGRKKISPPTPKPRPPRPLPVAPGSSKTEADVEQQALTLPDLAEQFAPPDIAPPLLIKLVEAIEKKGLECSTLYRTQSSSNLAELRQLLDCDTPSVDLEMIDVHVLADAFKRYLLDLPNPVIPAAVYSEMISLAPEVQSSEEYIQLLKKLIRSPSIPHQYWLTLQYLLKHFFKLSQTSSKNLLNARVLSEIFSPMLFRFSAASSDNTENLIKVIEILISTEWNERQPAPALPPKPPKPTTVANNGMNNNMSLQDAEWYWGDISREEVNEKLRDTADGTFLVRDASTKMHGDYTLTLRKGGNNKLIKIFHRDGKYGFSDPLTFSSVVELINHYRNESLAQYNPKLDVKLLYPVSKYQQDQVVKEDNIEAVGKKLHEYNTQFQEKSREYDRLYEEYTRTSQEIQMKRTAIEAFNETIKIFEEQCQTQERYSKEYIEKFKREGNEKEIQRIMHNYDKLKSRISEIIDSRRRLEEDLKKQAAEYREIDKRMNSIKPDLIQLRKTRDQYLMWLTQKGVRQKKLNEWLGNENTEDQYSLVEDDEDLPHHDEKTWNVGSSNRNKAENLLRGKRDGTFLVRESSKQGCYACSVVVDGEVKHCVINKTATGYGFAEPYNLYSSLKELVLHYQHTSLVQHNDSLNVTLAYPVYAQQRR
Sequence of PI3K-δ (O00329 whole entry, species assumed): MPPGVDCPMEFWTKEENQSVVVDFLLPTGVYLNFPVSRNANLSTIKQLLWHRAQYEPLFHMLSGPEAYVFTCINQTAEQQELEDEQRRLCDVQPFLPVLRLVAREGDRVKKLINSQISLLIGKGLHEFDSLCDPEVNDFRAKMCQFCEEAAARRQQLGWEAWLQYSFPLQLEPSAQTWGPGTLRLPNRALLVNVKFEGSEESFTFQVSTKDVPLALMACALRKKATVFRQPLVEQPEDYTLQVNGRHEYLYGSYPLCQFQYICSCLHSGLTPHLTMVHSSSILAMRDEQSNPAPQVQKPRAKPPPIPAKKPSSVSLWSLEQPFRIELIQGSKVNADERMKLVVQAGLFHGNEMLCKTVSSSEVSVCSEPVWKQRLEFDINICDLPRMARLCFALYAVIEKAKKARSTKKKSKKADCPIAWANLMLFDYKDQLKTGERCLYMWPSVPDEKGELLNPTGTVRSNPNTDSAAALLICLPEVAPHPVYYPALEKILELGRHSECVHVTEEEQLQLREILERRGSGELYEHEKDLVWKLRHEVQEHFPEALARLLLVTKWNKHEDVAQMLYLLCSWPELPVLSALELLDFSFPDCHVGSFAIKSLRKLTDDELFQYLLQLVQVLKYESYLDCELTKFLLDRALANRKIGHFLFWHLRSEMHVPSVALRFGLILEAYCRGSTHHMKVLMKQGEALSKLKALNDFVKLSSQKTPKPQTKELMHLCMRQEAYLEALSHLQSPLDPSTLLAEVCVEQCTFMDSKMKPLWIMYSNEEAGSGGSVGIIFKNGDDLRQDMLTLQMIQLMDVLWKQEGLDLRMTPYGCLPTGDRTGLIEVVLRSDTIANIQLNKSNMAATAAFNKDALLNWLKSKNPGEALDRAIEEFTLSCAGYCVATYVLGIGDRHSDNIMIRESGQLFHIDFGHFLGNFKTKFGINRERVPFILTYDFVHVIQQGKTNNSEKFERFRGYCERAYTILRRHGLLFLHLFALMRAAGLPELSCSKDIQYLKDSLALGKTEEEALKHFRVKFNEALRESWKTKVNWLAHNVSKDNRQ
Sequence of PI3K-δ (P27986 whole entry partner, species assumed): as the sequence (P27986 whole entry partner, species assumed) above
Sequence of PI3K-β (P42338 whole entry, species assumed): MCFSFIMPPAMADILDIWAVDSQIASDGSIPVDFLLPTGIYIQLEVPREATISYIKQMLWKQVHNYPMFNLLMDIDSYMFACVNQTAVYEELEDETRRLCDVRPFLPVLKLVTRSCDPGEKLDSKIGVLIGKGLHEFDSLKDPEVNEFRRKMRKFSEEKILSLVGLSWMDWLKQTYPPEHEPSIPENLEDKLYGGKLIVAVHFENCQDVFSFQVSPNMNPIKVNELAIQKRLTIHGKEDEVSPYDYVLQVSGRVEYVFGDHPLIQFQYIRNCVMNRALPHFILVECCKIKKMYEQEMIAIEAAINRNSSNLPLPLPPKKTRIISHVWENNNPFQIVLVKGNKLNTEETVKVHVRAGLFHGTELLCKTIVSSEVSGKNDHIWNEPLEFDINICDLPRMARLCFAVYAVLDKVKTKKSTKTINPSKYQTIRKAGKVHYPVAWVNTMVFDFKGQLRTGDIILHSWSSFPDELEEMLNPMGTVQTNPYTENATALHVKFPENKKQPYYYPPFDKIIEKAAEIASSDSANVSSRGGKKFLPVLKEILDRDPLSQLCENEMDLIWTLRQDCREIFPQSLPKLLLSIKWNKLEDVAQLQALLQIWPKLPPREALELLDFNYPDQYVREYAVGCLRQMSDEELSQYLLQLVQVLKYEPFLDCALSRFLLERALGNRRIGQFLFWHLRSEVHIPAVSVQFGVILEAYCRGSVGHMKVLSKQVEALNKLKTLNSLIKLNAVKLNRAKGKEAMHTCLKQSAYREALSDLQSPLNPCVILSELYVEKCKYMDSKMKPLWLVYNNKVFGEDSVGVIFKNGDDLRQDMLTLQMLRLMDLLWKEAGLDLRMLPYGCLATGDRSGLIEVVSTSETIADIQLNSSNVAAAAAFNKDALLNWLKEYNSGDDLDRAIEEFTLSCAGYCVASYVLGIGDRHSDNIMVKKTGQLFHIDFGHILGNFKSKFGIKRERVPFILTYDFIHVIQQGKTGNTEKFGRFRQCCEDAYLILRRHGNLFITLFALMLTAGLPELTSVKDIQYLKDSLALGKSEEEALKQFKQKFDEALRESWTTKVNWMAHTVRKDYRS
Sequence of PI3K-β (P27986 whole entry partner, species assumed): as the sequence (P27986 whole entry partner, species assumed) above
Sequence of PI3K-γ (P48736 whole entry, species assumed): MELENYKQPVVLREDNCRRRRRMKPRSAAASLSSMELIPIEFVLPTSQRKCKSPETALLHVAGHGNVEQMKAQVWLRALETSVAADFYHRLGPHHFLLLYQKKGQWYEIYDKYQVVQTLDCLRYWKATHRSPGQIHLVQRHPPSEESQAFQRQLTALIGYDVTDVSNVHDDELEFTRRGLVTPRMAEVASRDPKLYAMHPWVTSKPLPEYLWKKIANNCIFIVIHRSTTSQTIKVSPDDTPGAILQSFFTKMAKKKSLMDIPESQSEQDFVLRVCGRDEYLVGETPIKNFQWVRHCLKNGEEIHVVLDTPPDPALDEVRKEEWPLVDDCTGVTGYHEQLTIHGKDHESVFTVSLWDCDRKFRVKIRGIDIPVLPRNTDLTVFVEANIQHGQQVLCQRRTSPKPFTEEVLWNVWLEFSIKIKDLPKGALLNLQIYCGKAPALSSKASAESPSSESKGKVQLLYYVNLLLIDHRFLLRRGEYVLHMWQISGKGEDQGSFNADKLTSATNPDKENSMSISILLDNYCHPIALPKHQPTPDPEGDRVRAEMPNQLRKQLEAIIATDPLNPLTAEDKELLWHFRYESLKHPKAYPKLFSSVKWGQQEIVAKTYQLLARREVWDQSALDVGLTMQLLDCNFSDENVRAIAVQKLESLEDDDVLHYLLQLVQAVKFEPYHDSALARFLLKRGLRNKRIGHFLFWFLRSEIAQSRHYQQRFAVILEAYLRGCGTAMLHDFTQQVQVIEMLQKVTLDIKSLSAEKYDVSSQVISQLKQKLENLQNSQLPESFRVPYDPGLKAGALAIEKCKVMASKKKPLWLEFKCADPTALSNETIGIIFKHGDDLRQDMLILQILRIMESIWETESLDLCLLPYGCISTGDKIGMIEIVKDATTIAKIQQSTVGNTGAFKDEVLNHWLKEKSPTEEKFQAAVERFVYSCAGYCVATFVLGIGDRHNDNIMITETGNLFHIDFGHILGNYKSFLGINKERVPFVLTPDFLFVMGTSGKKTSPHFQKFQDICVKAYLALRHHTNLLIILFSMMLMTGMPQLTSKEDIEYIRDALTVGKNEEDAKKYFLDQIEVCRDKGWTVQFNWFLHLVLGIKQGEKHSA

SMILES | IC50 (PI3K-γ) | IC50 (PI3K-α) | IC50 (mTOR [1]) | also measured
COc1ccc(Oc2nc(-c3ccc(OC)c(OC)c3)nc3c2cnn3C)cc1OC [Example 46, 4-(3,4-dimethoxyphenoxy)-6-(3,4-dimethoxyphenyl)-1-methyl-1H-pyrazolo[3,4-d]pyrimidine] | 203 nM | 230 nM | > 20000 nM | IC50 (PI3K-δ): 94 nM; IC50 (PI3K-β): 428 nM
COc1cccc(-c2nc(Oc3ccc(NC(C)=O)cc3)c3cnn(C)c3n2)c1 [Example 49, N-(4-{[6-(3-methoxyphenyl)-1-methyl-1H-pyrazolo[3,4-d]pyrimidin-4-yl]oxy}phenyl)acetamide] | 514 nM | 258 nM | > 20000 nM | IC50 (PI3K-δ): 134 nM; IC50 (PI3K-β): 1040 nM
CC(=O)Nc1ccc(Oc2nc(-c3cccc(O)c3)nc3c2cnn3C)cc1 [Example 50, N-(4-{[6-(3-hydroxyphenyl)-1-methyl-1H-pyrazolo[3,4-d]pyrimidin-4-yl]oxy}phenyl)acetamide] | 114 nM | 113 nM | 2100 nM | IC50 (PI3K-δ): 65 nM; IC50 (PI3K-β): 213 nM
Cc1noc(C)c1-c1nc(Nc2ccc(C(N)=O)cc2)c2cnn(C)c2n1 [Example 63, 4-{[6-(3,5-dimethylisoxazol-4-yl)-1-methyl-1H-pyrazolo[3,4-d]pyrimidin-4-yl]amino}benzamide] | 416 nM | 75 nM | 2800 nM | IC50 (PI3K-δ): 439 nM; IC50 (PI3K-β): 2150 nM
Cn1ncc2c(Nc3ccc(C(N)=O)cc3)nc(-c3cccc(Cl)c3)nc21 [Example 64, 4-{[6-(3-chlorophenyl)-1-methyl-1H-pyrazolo[3,4-d]pyrimidin-4-yl]amino}benzamide] | 331 nM | 40 nM | 300 nM | IC50 (PI3K-δ): 170 nM; IC50 (PI3K-β): 1620 nM
CC(C)N1CCN(C(=O)c2ccc(NC(=O)Nc3ccc(Nc4nc(Nc5ccc(C(N)=O)cc5)c5cnn(C)c5n4)cc3)cc2)CC1 [Example 87, 4-({1-Methyl-6-[(4-{[(4-{[4-(propan-2-yl)piperazin-1-yl]carbonyl}phenyl)carbamoyl]amino}phenyl)amino]-1H-pyrazolo[3,4-d]pyrimidin-4-yl}amino)benzamide] | 5 nM | 0.4 nM | 8 nM | –
Cn1c(=O)n(-c2ccc(C(C)(C)C#N)cc2)c2c3cc(-c4cnc5ccccc5c4)ccc3ncc21 [NVP-BEZ-235, 2-methyl-2-(4-(3-methyl-2-oxo-8-(quinolin-3-yl)-2,3-dihydro-1H-imidazo[4,5-c]quinolin-1-yl)phenyl)propanenitrile] | – | – | – | activity in human tumor xenograft models (human tumor xenografts; prostrate (PC-3) and glioblastoma (U-87)): demonstrated activity
Oc1cccc(-c2nc(N3CCOCC3)c3oc4ncccc4c3n2)c1 [PI103, 3-(4-(4-morpholinyl)pyrido[3′,2′:4,5]furo[3,2-d]pyrimidin-2-yl)phenol] | – | – | – | activity in human tumor xenograft models (human tumor xenografts; I.P. dosing in mice, U87MG, PC3, MDA-MB-468, MDA-MB-435, HCT 116, SKOV3, IGROV-1): demonstrated activity
CO[C@H]1C[C@@H]2CC[C@@H](C)[C@@](O)(O2)C(=O)C(=O)N2CCCC[C@H]2C(=O)O[C@H]([C@H](C)C[C@@H]2CC[C@@H](OC(=O)C(C)(CO)CO)[C@H](OC)C2)CC(=O)[C@H](C)/C=C(\C)[C@@H](O)[C@@H](OC)C(=O)[C@H](C)C[C@H](C)/C=C/C=C/C=C/1C [Torisel] | – | – | – | activity in NOS/SCID xenograft mouse model of acute lymphoblastic leukemia [2]: active
FC(F)c1nc2ccccc2n1-c1nc(N2CCOCC2)nc(N2CCOCC2)n1 [ZSTK474, 2-(2-difluoromethylbenzoimidazol-1-yl)-4,6-dimorpholino-1,3,5-triazine] | – | – | – | tumor growth in mouse human xenograft cancer models (human tumor xenografts; chronic oral administration, 400 mg/kg, A549, PC-3, WiDr): completely inhibited growth; IC50 (mTOR [3]): > 10000 nM

Now from value to compound, other results behind:

IC50 (PI3K-γ) | IC50 (PI3K-α) | IC50 (mTOR [1]) | SMILES | also measured
263 nM | 27 nM | 44 nM | Cn1ncc2c(Nc3ccc(C(N)=O)cc3)nc(Nc3ccc(NC(=O)NC4CC4)cc3)nc21 [Example 88, 4-{[6-({4-[(Cyclopropylcarbamoyl)amino]phenyl}amino)-1-methyl-1H-pyrazolo[3,4-d]pyrimidin-4-yl]amino}benzamide] | –
523 nM | 124 nM | 70 nM | CC(C)NC(=O)Nc1ccc(Nc2nc(Nc3ccc(C(N)=O)cc3)c3cnn(C)c3n2)cc1 [Example 89, 4-{[1-Methyl-6-({4-[(propan-2-ylcarbamoyl)amino]phenyl}amino)-1H-pyrazolo[3,4-d]pyrimidin-4-yl]amino}benzamide] | –
75 nM | 2.5 nM | 12 nM | CNC(=O)c1ccc(Nc2nc(Nc3ccc(NC(=O)Nc4cccnc4)cc3)nc3c2cnn3C)cc1 [Example 90, N-Methyl-4-{[1-methyl-6-({4-[(pyridin-3-ylcarbamoyl)amino]phenyl}amino)-1H-pyrazolo[3,4-d]pyrimidin-4-yl]amino}benzamide] | –
3170 nM | 198 nM | 2000 nM | CN1CCC(NC(=O)Nc2ccc(Nc3nc(Nc4ccc(C(N)=O)cc4)c4cnn(C)c4n3)cc2)CC1 [Example 91, 4-({1-Methyl-6-[(4-{[(1-methylpiperidin-4-yl)carbamoyl]amino}phenyl)amino]-1H-pyrazolo[3,4-d]pyrimidin-4-yl}amino)benzamide] | –
6 nM | < 0.3 nM | 9 nM | CN(C)CCN(C)C(=O)c1ccc(NC(=O)Nc2ccc(Nc3nc(Nc4ccc(C(N)=O)cc4)c4cnn(C)c4n3)cc2)cc1 [Example 92, 4-({[4-({4-[(4-Carbamoylphenyl)amino]-1-methyl-1H-pyrazolo[3,4-d]pyrimidin-6-yl}amino)phenyl]carbamoyl}amino)-N-[2-(dimethylamino)ethyl]-N-methylbenzamide] | –
75 nM | 2.1 nM | 12 nM | CN(C)C(=O)c1ccc(Nc2nc(Nc3ccc(NC(=O)Nc4cccnc4)cc3)nc3c2cnn3C)cc1 [Example 93, N,N-Dimethyl-4-{[1-methyl-6-({4-[(pyridin-3-ylcarbamoyl)amino]phenyl}amino)-1H-pyrazolo[3,4-d]pyrimidin-4-yl]amino}benzamide] | –
11 nM | 1.6 nM | 20 nM | Cn1ncc2c(Nc3ccc4c(c3)CNC4=O)nc(Nc3ccc(NC(=O)Nc4cccnc4)cc3)nc21 [Example 94, 1-[4-({1-Methyl-4-[(1-oxo-2,3-dihydro-1H-isoindol-5-yl)amino]-1H-pyrazolo[3,4-d]pyrimidin-6-yl}amino)phenyl]-3-pyridin-3-ylurea] | –
148 nM | 6 nM | 68 nM | CN1Cc2cc(Nc3nc(Nc4ccc(NC(=O)Nc5cccnc5)cc4)nc4c3cnn4C)ccc2C1=O [Example 95, 1-[4-({1-Methyl-4-[(2-methyl-1-oxo-2,3-dihydro-1H-isoindol-5-yl)amino]-1H-pyrazolo[3,4-d]pyrimidin-6-yl}amino)phenyl]-3-pyridin-3-ylurea] | –
